Calls of active or inactive are those of the source. The rule behind the calls is not given here.
Tests used:
[1] = test system: Mus musculus; assay: Anticonvulsant activity in pentylenetetrazole induced seizure mouse model assessed as no observable episode of clonic convulsion of at least 5 secs at 100 mg/kg, ip measured at 0.5 hrs post dose; assay type: functional, organism-based
[2] = test system: Mus musculus; assay: Anticonvulsant activity in maximal electroshock induced seizure mouse model assessed as suppression in hindlimb tonic extension at 300 mg/kg, ip measured at 0.5 hrs post dose; assay type: functional, organism-based
[3] = test system: Mus musculus; assay: Neurotoxicity in mouse assessed as induction of motor impairment at 30 mg/kg, ip measured at 0.5 hrs post dose by rotarod method; assay type: toxicity, organism-based; details: in vivo
[4] = test system: Mus musculus; assay: Neurotoxicity in mouse assessed as induction of motor impairment at 100 mg/kg, ip measured at 4 hrs post dose by rotarod method; assay type: toxicity, organism-based; details: in vivo
[5] = test system: Mus musculus; assay: Anticonvulsant activity in maximal electroshock induced seizure mouse model assessed as suppression in hindlimb tonic extension at 100 mg/kg, ip measured at 0.5 hrs post dose; assay type: functional, organism-based
[6] = test system: Mus musculus; assay: Neurotoxicity in mouse assessed as induction of motor impairment at 300 mg/kg, ip measured at 0.5 hrs post dose by rotarod method; assay type: toxicity, organism-based; details: in vivo
[7] = test system: Mus musculus; assay: Neurotoxicity in mouse assessed as induction of motor impairment at 30 mg/kg, ip measured at 4 hrs post dose by rotarod method; assay type: toxicity, organism-based; details: in vivo
[8] = test system: Mus musculus; assay: Anticonvulsant activity in maximal electroshock induced seizure mouse model assessed as suppression in hindlimb tonic extension at 300 mg/kg, ip measured at 4 hrs post dose; assay type: functional, organism-based
[9] = test system: Mus musculus; assay: Anticonvulsant activity in pentylenetetrazole induced seizure mouse model assessed as no observable episode of clonic convulsion of at least 5 secs at 300 mg/kg, ip measured at 0.5 hrs post dose; assay type: functional, organism-based
[10] = test system: Mus musculus; assay: Neurotoxicity in mouse assessed as induction of motor impairment at 100 mg/kg, ip measured at 0.5 hrs post dose by rotarod method; assay type: toxicity, organism-based; details: in vivo
[11] = test system: Rattus norvegicus; assay: Neurotoxicity in Sprague-Dawley rat assessed as behavioral change at 30 mg/kg, po measured at 4 hrs post dose; assay type: toxicity, organism-based; details: in vivo
[12] = test system: Mus musculus; assay: Neurotoxicity in mouse assessed as induction of motor impairment at 300 mg/kg, ip measured at 4 hrs post dose by rotarod method; assay type: toxicity, organism-based; details: in vivo
[13] = test system: Rattus norvegicus; assay: Neurotoxicity in Sprague-Dawley rat assessed as behavioral change at 30 mg/kg, po measured at 2 hrs post dose; assay type: toxicity, organism-based; details: in vivo
[14] = test system: Rattus norvegicus; assay: Neurotoxicity in Sprague-Dawley rat assessed as behavioral change at 30 mg/kg, po measured at 0.5 hrs post dose; assay type: toxicity, organism-based; details: in vivo
[15] = test system: Rattus norvegicus; assay: Neurotoxicity in Sprague-Dawley rat assessed as behavioral change at 30 mg/kg, po measured at […] post dose; assay type: toxicity, organism-based; details: in vivo
[16] = test system: Rattus norvegicus; assay: Neurotoxicity in Sprague-Dawley rat assessed as behavioral change at 30 mg/kg, po measured at 1 hr post dose; assay type: toxicity, organism-based; details: in vivo
[17] = test system: Rattus norvegicus; assay: Neurotoxicity in Sprague-Dawley rat assessed as behavioral change at 30 mg/kg, ip measured at 1 hr post dose; assay type: toxicity, organism-based; details: in vivo
[18] = test system: Rattus norvegicus; assay: Neurotoxicity in Sprague-Dawley rat assessed as behavioral change at 30 mg/kg, ip measured at […] post dose; assay type: toxicity, organism-based; details: in vivo
[19] = test system: Rattus norvegicus; assay: Neurotoxicity in Sprague-Dawley rat assessed as behavioral change at 30 mg/kg, ip measured at 2 hrs post dose; assay type: toxicity, organism-based; details: in vivo
[20] = test system: Rattus norvegicus; assay: Neurotoxicity in Sprague-Dawley rat assessed as behavioral change at 30 mg/kg, ip measured at 4 hrs post dose; assay type: toxicity, organism-based; details: in vivo
[21] = test system: Rattus norvegicus; assay: Neurotoxicity in Sprague-Dawley rat assessed as behavioral change at 30 mg/kg, ip measured at 0.5 hrs post dose; assay type: toxicity, organism-based; details: in vivo
[22] = test system: Mus musculus; assay: Anticonvulsant activity in 6-Hz induced seizure mouse model assessed as restoration of normal activity within 10 secs from stimulation at 100 mg/kg, ip at 32 mA measured at […] post dose; assay type: functional, organism-based
[23] = test system: Mus musculus; assay: Anticonvulsant activity in 6-Hz induced seizure mouse model assessed as restoration of normal activity within 10 secs from stimulation at 100 mg/kg, ip at 32 mA measured at 0.5 hrs post dose; assay type: functional, organism-based
[24] = Protection index, ratio of TD50 for neurotoxicity in ip dosed mouse to ED50 for ip dosed maximal electroshock induced seizure mouse model; assay type: toxicity, organism-based; details: in vivo, read-out: Ratio TD50/ED50
[25] = test system: Mus musculus; assay: Anticonvulsant activity in ip dosed maximal electroshock induced seizure mouse model assessed as suppression in hindlimb tonic extension; assay type: functional
[26] = Neurotoxicity in ip dosed mouse; assay type: toxicity, organism-based; details: in vivo
[27] = test system: Mus musculus; assay: Neurotoxicity in ip dosed mouse assessed as induction of motor impairment by measuring time to peak effect by rotarod method; assay type: toxicity, organism-based; details: in vivo
[28] = test system: Mus musculus; assay: Anticonvulsant activity in ip dosed maximal electroshock induced seizure mouse model assessed as suppression in hindlimb tonic extension by measuring time to peak effect; assay type: functional

Row | Structure (SMILES) | Activity [2] | Activity [3] | Activity [4] | Activity [5] | Activity [6] | Activity [7] | Activity [9] | Activity [10] | Activity [11] | Activity [12] | Activity [13] | Activity [14] | Activity [15] | Activity [16] | further results
1 | Cc1ccccc1/C=C/C(=O)NCC(C)O (configuration not stated) | Active | Non-Toxic | Non-Toxic | Active | Toxic | Non-Toxic | Active |  |  |  |  |  |  |  | Activity [1]: Active; Activity [8]: Active
2 | Cc1ccc(/C=C/C(=O)NC(C)CO)cc1 (configuration not stated) | Active | Non-Toxic | Non-Toxic | Active | Toxic | Non-Toxic | Active | Non-Toxic | Non-Toxic | Non-Toxic | Non-Toxic | Non-Toxic | Non-Toxic | Non-Toxic | 
3 | CC[C@@H](CO)NC(=O)/C=C/c1ccccc1C | Active | Non-Toxic | Non-Toxic | Active | Toxic | Non-Toxic | Active | Non-Toxic | Non-Toxic | Non-Toxic | Non-Toxic | Non-Toxic | Non-Toxic | Non-Toxic | 
4 | Cc1ccccc1/C=C/C(=O)NC1CCCCC1O (racemic) | Active | Non-Toxic | Non-Toxic |  | Non-Toxic | Non-Toxic |  | Non-Toxic |  | Non-Toxic |  |  |  |  | 
5 | CCC(O)CNC(=O)/C=C/c1ccc(C)cc1 (configuration not stated) |  |  | Non-Toxic |  |  |  |  | Non-Toxic |  |  |  |  |  |  | Activity [17]: Non-Toxic; Activity [18]: Non-Toxic; Activity [19]: Non-Toxic; Activity [20]: Non-Toxic; Activity [21]: Non-Toxic
6 | Cc1ccc(/C=C/C(=O)NCC(C)O)cc1 (configuration not stated) | Active | Non-Toxic | Non-Toxic |  | Toxic | Non-Toxic | Active | Non-Toxic |  | Non-Toxic |  |  |  |  | 
7 | Cc1ccccc1/C=C/C(=O)N[C@H](C)CO | Active | Non-Toxic | Non-Toxic |  | Toxic | Non-Toxic | Active | Non-Toxic | Non-Toxic | Non-Toxic | Non-Toxic | Non-Toxic | Non-Toxic | Non-Toxic | Activity [22]: Active; Activity [23]: Active
8 | CC(CO)NC(=O)/C=C/c1ccc(Cl)cc1 (configuration not stated) | Active | Non-Toxic | Non-Toxic | Active | Toxic | Non-Toxic | Active |  | Non-Toxic |  | Non-Toxic | Non-Toxic | Non-Toxic | Non-Toxic | Activity [1]: Active; Activity [8]: Active
9 | Cc1ccccc1/C=C/C(=O)NC(C)CO (configuration not stated) | Active | Non-Toxic | Non-Toxic | Active | Toxic | Non-Toxic | Active |  | Non-Toxic | Non-Toxic | Non-Toxic | Non-Toxic | Non-Toxic | Non-Toxic | 
10 | CC[C@@H](CO)NC(=O)/C=C/c1ccc(C)cc1 | Active | Non-Toxic | Non-Toxic |  | Toxic | Non-Toxic | Active | Non-Toxic |  | Non-Toxic |  |  |  |  | 
11 | CC[C@H](CO)NC(=O)/C=C/c1ccc(Cl)cc1 |  |  |  | Active |  |  |  | Toxic |  |  |  |  |  |  | selectivity ratio [24]: 3.85; ED50 [25]: 27.3 mg/kg; TD50 [26]: 105 mg/kg; Time [27]: 0.25 h; Time [28]: 0.25 h
12 | Cc1ccc(/C=C/C(=O)NC2CCCCC2O)cc1 (racemic) |  |  | Non-Toxic |  |  |  |  | Non-Toxic |  |  |  |  |  |  | 
13 | CC[C@@H](CO)NC(=O)/C=C/c1ccc(Cl)cc1 |  |  |  | Active |  |  |  | Toxic |  |  |  |  |  |  | selectivity ratio [24]: 1.3; ED50 [25]: 43.3 mg/kg; TD50 [26]: 56.4 mg/kg; Time [27]: 0.25 h; Time [28]: 0.25 h
14 | CC(C)(CO)NC(=O)/C=C/c1ccc(Cl)cc1 | Active | Non-Toxic | Non-Toxic |  |  | Non-Toxic |  | Non-Toxic | Non-Toxic | Non-Toxic | Non-Toxic | Non-Toxic | Non-Toxic | Non-Toxic | Activity [17]: Non-Toxic; Activity [18]: Non-Toxic; Activity [19]: Non-Toxic; Activity [20]: Non-Toxic; Activity [21]: Non-Toxic; Activity [8]: Active
